Read-outs that look alike come from different tables or passages of the source.
Key:
[1] = target: T1, human recombinant COX2 (hCOX2) (UniProt P35354); test: LCMS-based COX2 enzymatic inhibition assay (PGE2 quantification); type: biochemical; design: COX2 2 minutes pge2/pge2d4 area ratio Avg; other: 2 minutes; readout pge2/pge2d4 area ratio; average; COX2 2 minutes pge2/pge2d4 area ratio Avg; LLE; average LLE; COX2 2 minutes pge2 area (counts) Avg; readout pge2 area (counts); other: 2 min; "ovine COX2 (oCOX2), human recombinant COX2 (hCOX2)"; settings: 2 minutes; for COX2 2 minutes pge2/pge2d4 area ratio Avg. LLE / COX2 2 minutes pge2 area (counts) Avg. LLE: average LLE; for IC50: average
T1 sequence (P35354 1-604): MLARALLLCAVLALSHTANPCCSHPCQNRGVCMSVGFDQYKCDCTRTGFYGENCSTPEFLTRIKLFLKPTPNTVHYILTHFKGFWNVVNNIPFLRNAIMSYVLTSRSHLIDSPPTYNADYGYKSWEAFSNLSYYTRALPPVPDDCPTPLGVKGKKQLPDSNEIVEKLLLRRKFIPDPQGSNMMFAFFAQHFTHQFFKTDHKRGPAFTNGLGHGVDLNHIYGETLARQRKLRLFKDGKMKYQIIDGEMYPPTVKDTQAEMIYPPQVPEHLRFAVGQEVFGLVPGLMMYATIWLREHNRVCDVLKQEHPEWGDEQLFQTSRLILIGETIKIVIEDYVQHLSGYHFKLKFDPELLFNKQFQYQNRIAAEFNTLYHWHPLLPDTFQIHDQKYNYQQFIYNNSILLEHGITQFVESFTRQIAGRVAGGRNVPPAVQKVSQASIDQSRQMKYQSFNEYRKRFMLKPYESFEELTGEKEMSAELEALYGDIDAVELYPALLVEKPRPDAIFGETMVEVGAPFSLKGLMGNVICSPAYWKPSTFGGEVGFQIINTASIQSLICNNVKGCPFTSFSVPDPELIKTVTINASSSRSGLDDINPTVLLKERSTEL
How it was run: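 Ovine COX-1 (0.1 μg) or human recombinant COX2 (0.2 μg) in 100 mM Tris.HCl pH 8.0 with hematin and epinephrine, preincubated with inhibitor 10 min at 37 °C. Reaction with 5 μM arachidonic acid stopped after 2 min with HCl; PGE2 quantified by LC-MS-MS. IC50 from 12 concentrations in triplicate.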

ovine COX-1 (oCOX-1) = target: T2, ovine COX-1 (oCOX-1) (Ovis aries, UniProt P05979); test: LCMS-based COX-1 enzymatic inhibition assay (PGE2 quantification); type: biochemical; settings: for COX1 10 minutes pge2/pge2d4 area ratio Avg. LLE / COX1 10 minutes pge2 area (counts) Avg. LLE: average LLE
T2 construct: purchased Cayman Chemicals (Ann Arbor, Mich.)
T2 sequence (P05979 25-600): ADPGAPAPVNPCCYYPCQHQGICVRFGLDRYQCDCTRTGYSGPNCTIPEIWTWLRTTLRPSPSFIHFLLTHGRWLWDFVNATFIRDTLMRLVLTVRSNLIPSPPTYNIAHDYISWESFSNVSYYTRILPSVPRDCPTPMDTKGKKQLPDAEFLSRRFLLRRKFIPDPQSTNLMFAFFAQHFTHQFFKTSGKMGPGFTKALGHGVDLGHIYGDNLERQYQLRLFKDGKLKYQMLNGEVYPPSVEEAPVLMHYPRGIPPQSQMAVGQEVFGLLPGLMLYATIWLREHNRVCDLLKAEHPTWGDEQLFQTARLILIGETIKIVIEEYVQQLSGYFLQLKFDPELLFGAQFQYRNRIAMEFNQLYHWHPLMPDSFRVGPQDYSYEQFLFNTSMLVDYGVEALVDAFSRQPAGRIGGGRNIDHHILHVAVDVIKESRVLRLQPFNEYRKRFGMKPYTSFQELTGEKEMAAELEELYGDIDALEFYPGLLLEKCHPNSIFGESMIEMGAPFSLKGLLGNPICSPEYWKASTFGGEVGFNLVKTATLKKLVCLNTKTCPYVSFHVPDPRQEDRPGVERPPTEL
Procedure: We have adapted a previously reported cyclooxygenase enzymatic assay utilizing LCMS quantification of PGE2 as the product of COX-1 and COX2 catalyzed conversion of arachidonic acid to evaluate the binding properties of newly synthesized ligands [Cao, 2011]. These optimized and miniaturized (384-well plates) LCMS-based COX-1 and COX2 enzymatic assays enabled us to quickly evaluate newly synthesized ligands for COX2 binding affinity and selectivity vs COX-1. Using a shorter ligand-enzyme incubation time in the LCMS assay (2 minutes vs 10 minutes) also permitted us to prioritize ligands with faster binding kinetics. Considering the relatively slow on-rate kinetics of known coxibs, due to their 3-step binding mechanism [Marnett, 2009], we believe that optimizing this critical parameter will be key to the successful development of a COX2 PET tracer. Using these enzymatic assays, we have evaluated>200 newly synthesized ligands against COX2 and >20 ligands against COX-1. Another critical property necessary for a good PET radiotracer is to have low non-specific binding (NSB) to increase the free fraction and maximize the signal to noise ratio. This property can be evaluated using in-vitro protein binding assays, and we have now evaluated>50 newly synthesized ligands in mouse, rat and human plasma protein binding (PPB) assays as well as >15 ligands in a mouse brain protein binding (BPB) assay.
Ovine COX-1 (oCOX-1), ovine COX2 (oCOX2), human recombinant COX2 (hCOX2), arachidonic acid, PGE2, d4-PGD2, and […] (labeled with deuterium atoms at positions 3 and 4) were purchased from Cayman Chemicals (Ann Arbor, Mich.). The cofactors (−)epinephrine and hematin, and the COX inhibitors indomethacin, resveratrol and diclofenac were purchased from Sigma-Aldrich (St. Louis, Mo.). Celecoxib was purchased from 3B PharmaChem International (Wuhan, China). All organic solvents were HPLC grade or better and were purchased from Thermo Fisher (Hanover Park, Ill.). Formic acid was purchased from EMD Chemicals (San Diego, Calif.). Purified water was prepared by using a Millipore Milli-Q purification system (Millipore, Billerica, Mass.). All other chemicals and solvents were ACS reagent grade, unless stated otherwise.
In an Eppendorf tube, 146 μL of 100 mM Tris.HCl (pH 8.0) buffer, 2 μL of 100 μM hematin (co-factor) and 10 μL of 40 mM L-epinephrine (co-factor) were mixed at room temperature. Next, 20 μL of Tris.HCl (pH 8.0) buffer containing 0.2 μg COX2 or 0.1 μg COX-1 (approximately 1 unit of enzyme; 1 unit COX utilizes 1 nmol 02/mg/min at 37° C.) was added, and the solution was incubated at room temperature for 2 min. A 2 μL aliquot of the COX inhibitor in DMSO was added to the enzyme solution and preincubated at 37° C. for 10 min. Negative controls were identical except that 2 μL aliquots of DMSO without inhibitor were used instead.
Each COX reaction was initiated by adding 20 μL of arachidonic acid in Tris.HCl (pH 8.0) buffer to give a final concentration of 5 μM; and the reaction was terminated after 2 min by adding 20 μL of 2.0 M HCl. The surrogate standards d4-PGE2 and d4-PGD2 (10 μL aliquot of 50 ng/mL solution in methanol) were added to correct for errors or degradation during sample handling and for variation in injection volume or instrument response during LC-MS-MS. After 30 min, PGE2, PGD2 and their surrogate standards were extracted from each incubation mixture using 800 μL hexane/ethyl acetate (50:50, v/v). The organic phase was removed, evaporated to dryness, and reconstituted in 100 μL methanol/water (50:50, v/v) for analysis using LC-MS-MS.
The concentration of PGE2 in each sample was measured using LC-MS-MS, and the percent of COX inhibition by each test solution was determined by comparing the amount of PGE2 produced in the experiment with that produced in the negative control incubation. The formation of PGD2 was measured for quality control purposes, since the levels of PGD2 should be proportional to those of PGE2. […]

[2] = readout pge2/pge2d4 area ratio, read-out: COX2 2 minutes pge2/pge2d4 area ratio Avg. IC50
[3] = readout pge2 area (counts), read-out: COX2 2 minutes pge2 area (counts) Avg. IC50
[4] = 10 minutes, readout pge2/pge2d4 area ratio
[5] = 10 minutes, readout pge2/pge2d4 area ratio, average, read-out: COX1 10 minutes pge2/pge2d4 area ratio Avg. IC50
[6] = 10 minutes, readout pge2 area (counts)
[7] = 10 minutes, readout pge2 area (counts), average, read-out: COX1 10 minutes pge2 area (counts) Avg. IC50

Row | Structure (SMILES) | COX2 2 minutes pge2/pge2d4 area ratio Avg. LLE ([1]; readout pge2/pge2d4 area ratio) | IC50 [1, 2] [nM] | COX2 2 minutes pge2 area (counts) Avg. LLE ([1]; readout pge2 area (counts)) | IC50 [1, 3] [nM] | COX1 10 minutes pge2/pge2d4 area ratio Avg. LLE (ovine COX-1 (oCOX-1); [4]) | IC50 (ovine COX-1 (oCOX-1); [5]) [nM] | COX1 10 minutes pge2 area (counts) Avg. LLE (ovine COX-1 (oCOX-1); [6]) | IC50 (ovine COX-1 (oCOX-1); [7]) [nM] | IC50 (ovine COX-1 (oCOX-1)) [nM]
1 | C[C@H](Oc1cccc(-c2ccc(S(C)(=O)=O)cc2)n1)c1cccs1 (single isomer, unassigned) [Compound 46] | 3.462 | 20.2 | 3.431 | 23.5 | 0.04315 | 50900 | 0.2102 | 34700 | –
2 | CS(=O)(=O)c1ccc(-c2cc(F)cc(OCc3cccs3)n2)cc1 [Compound 6] | 4.364 | 6.26 | 4.247 | 8.2 | 1.694 | 2860 | 1.673 | 3000 | –
3 | Cc1csc(COc2cncc(-c3ccc(S(C)(=O)=O)cc3)n2)c1 [Compound 10] | 5.4246 | 8.12 | 5.349 | 9.54 | 2.513 | 5850 | 2.529 | 5640 | –
4 | CS(=O)(=O)c1ccc(-c2cccc(NCc3ccsc3)n2)cc1 [Compound 11] | 4.584 | 8.42 | 4.6244 | 8.13 | – | – | 0.8485 | 42800 | –
5 | CSc1ccc(NCc2cccs2)nc1-c1ccc(S(C)(=O)=O)cc1 [Compound 20] | 3.9449 | 10.8 | 3.942 | 11.5 | 0.214 | – | 0.214 | – | 52000
6 | CS(=O)(=O)c1ccc(-c2cccc(OCc3ccc(F)s3)n2)cc1 [Compound 30] | 3.668 | 15 | 3.685 | 12.2 | 0.1181 | 42800 | 0.2149 | 34300 | –
7 | CS(=O)(=O)c1ccc(-c2ccc3ccn(Cc4cccs4)c3n2)cc1 [Compound 31] | 3.218 | 15.2 | 3.116 | 18.5 | 1.013 | 2220 | 0.929 | 2710 | –
8 | CS(=O)(=O)c1ccc(-c2cccc(OCc3cccs3)n2)nc1 [Compound 37] | 5.44 | 18.1 | 5.694 | 14.3 | 2.056 | 39200 | 2.13 | 33100 | –
9 | Cc1ncc(-c2ccc(S(C)(=O)=O)cc2)nc1OCc1cccs1 [Compound 38] | 5.142 | 18.4 | 5.088 | 20.6 | 3.526 | 699 | 3.306 | 1230 | –
10 | CS(=O)(=O)c1ccc(-c2coc3ccc(NCc4cccs4)nc23)cc1 [Compound 39] | – | 18.6 | – | 18.4 | – | – | – | – | 52000
11 | CS(=O)(=O)c1ccc(-c2cccc(NCc3cccs3)c2)cc1 [Compound 42] | 3.551 | 19.5 | 3.78 | 6.71 | 0.01187 | 36200 | −0.01745 | 38700 | –

Reference: patent publication US20220348590A1, “CYCLOOXYGENASE-2 INHIBITORS AND USES THEREOF” (The Board Institute, Inc., priority 2019, published 2022)
